In patent US11400132B2 (NOVALIQ GMBH, priority 2016, dated 2022):

Experiment: Water solubility / residual water in 1-perfluorobutyl-pentane
Format: physicochemical
Settings: based on weight of 1-perfluorobutylpentane
Description: The predominant contribution to residual water content in the composition can be attributed to water sorption or association with ciclosporin (e.g. not limited to, but for example derived from manufacturing process, or its transport and storage).
The 1-perfluorobutyl-pentane as featured in any of the compositions or methods described herein is preferably essentially free of water. In such case, the presence of residual water in the composition according to the invention is derived from the ciclosporin or optionally, if present, one or more excipients that is functionally not a co-solvent.

SMILES: CCCCCC(F)(F)C(F)(F)C(F)(F)C(F)(F)F [F4H5, 1-perfluorobutyl-pentane]
- water solubility in 1-perfluorobutylpentane: less than 1.20×10^−5 wt %
